Data as given in BindingDB's records for doi:10.1016/j.bmcl.2011.01.024 (Amira Pharmaceuticals, 2011).

Assay: Inhibition of human prostanoid DP2 receptor in human whole bood assessed as eosinophil shape change preincubated for 15 mins before addition of PGD2 measured after 5 mins by FACS analysis

| Structure (SMILES) | IC50 [nM] |
| --- | --- |
| COc1ccc(CC(=O)O)cc1-c1ccc(C(F)(F)F)cc1CNC(=O)OCc1ccccc1 | 709 |
| COC(=O)N(Cc1ccccc1)Cc1cc(C(F)(F)F)ccc1-c1cc(CC(=O)O)ccc1OC | 22 |
| CCN(Cc1cc(C(F)(F)F)ccc1-c1cc(CC(=O)O)ccc1OC)C(=O)OC | 8 |
| COc1ccc(CC(=O)O)cc1-c1ccc(C(F)(F)F)cc1CN(C)C(=O)OCc1ccccc1 | 9 |
| COC(=O)N(CCc1ccccc1)Cc1cc(C(F)(F)F)ccc1-c1cc(CC(=O)O)ccc1OC | 34 |

Continued, values first:

| IC50 [nM] | Structure (SMILES) |
| --- | --- |
| 5 | CCN(Cc1cc(C(F)(F)F)ccc1-c1cc(CC(=O)O)ccc1OC)C(=O)OCc1cc(F)cc(F)c1 |
| 7 | CCN(Cc1cc(C(F)(F)F)ccc1-c1cc(CC(=O)O)ccc1OC)C(=O)OCc1cccc(Cl)c1 |
| 7 | CCN(Cc1cc(C(F)(F)F)ccc1-c1cc(CC(=O)O)ccc1OC)C(=O)OCc1ccccc1Cl |
| 6 | CCN(Cc1cc(C(F)(F)F)ccc1-c1cc(CC(=O)O)ccc1OC)C(=O)OCc1ccc(Cl)cc1 |
